US10294202B2, “Pyrrolidinones as herbicides” (FMC Corporation, priority 2013, dated 2019)

Experiments:
[1] = tested on: barnyardgrass; assay: Test A pre-/postemergence herbicide test; type: in vivo, Echinochloa crus-galli; details: for Barnyardgrass plant response rating: Preemergence, visual rating on 0 to 100 scale (0 no effect, 100 complete control)
How it was run: (§1)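 Directed soil spray to seeded pots (preemergence) or spray onto one- to two-leaf seedlings 2–10 cm tall (postemergence); loam/sand substrate throughout. Evaluated visually after about 10 days against untreated plants, 0 = no effect, 100 = complete control.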

[2] = tested on: pigweed; assay: Test A pre-/postemergence herbicide test; type: in vivo, Amaranthus retroflexus; details: for Pigweed plant response rating: Preemergence, visual rating on 0 to 100 scale (0 no effect, 100 complete control)
How it was run: as §1

[3] = tested on: wheat; assay: Test A pre-/postemergence herbicide test; type: in vivo, Triticum aestivum; details: for Wheat plant response rating: Preemergence, visual rating on 0 to 100 scale (0 no effect, 100 complete control)
How it was run: as §1

[4] = tested on: ducksalad; assay: Test B flooded paddy test; type: in vivo, Heteranthera limosa; details: 250 g ai/ha, Flood; scale of 0 to 100 where 0 is no effect and 100 is complete control
How it was run: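 Plants were grown to the 2-leaf stage, then pots were flooded to 3 cm above the soil and compound was applied directly into the paddy water, with that depth held throughout. After 13 to 15 days in a greenhouse, injury was rated visually against untreated controls on a 0 to 100 scale (100 = complete control).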

[5] = tested on: blackgrass; assay: Test C pre-/postemergence herbicide test; type: in vivo, Alopecurus myosuroides
How it was run: (§2)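 Two application timings ran in parallel with identically formulated test chemicals (non-phytotoxic solvent, surfactant included): spray on seeded loam–sand soil, and spray on emerged plants 2 to 18 cm high. Evaluation at 13 to 15 days compared each species with controls, rated from 0 up to 100.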

[6] = tested on: ryegrass, Italian; assay: Test C pre-/postemergence herbicide test; type: in vivo, Lolium multiflorum
How it was run: as §2

[7] = tested on: wheat (winter wheat); assay: Test C pre-/postemergence herbicide test; type: in vivo, Triticum aestivum
How it was run: as §2

[8] = tested on: galium; assay: Test C pre-/postemergence herbicide test; type: in vivo, Galium aparine; details: Preemergence; for Galium plant response rating: 31 g ai/ha
How it was run: as §2

[9] = tested on: nutsedge, yellow; assay: Test C pre-/postemergence herbicide test; type: in vivo, Cyperus esculentus
How it was run: as §2

[10] = Postemergence, 125 g ai/ha, 0 to 100 scale, 0 no effect, 100 complete control
[11] = Postemergence, 500 g ai/ha, 0 to 100 scale (0 no effect, 100 complete control)
[12] = preemergence, 500 g ai/ha, 0 to 100 scale (0 no effect, 100 complete control)
[13] = preemergence, 500 g ai/ha, 0 to 100 scale
[14] = Postemergence, 31 g ai/ha, scale 0 (no effect) to 100 (complete control)
[15] = Postemergence, 62 g ai/ha, scale 0 to 100 (0 no effect, 100 complete control)
[16] = Postemergence, 125 g ai/ha, scale 0 to 100 (0 no effect, 100 complete control)
[17] = Postemergence, 250 g ai/ha, scale 0 to 100 (0 no effect, 100 complete control)
[18] = Preemergence, 62 g ai/ha, scale 0 to 100
[19] = Preemergence, 125 g ai/ha, scale 0 to 100 (0 no effect, 100 complete control)
[20] = Preemergence, 31 g ai/ha, scale 0 to 100 (0 no effect, 100 complete control)
[21] = 125 g ai/ha, scale 0 to 100 (0 no effect, 100 complete control)
[22] = scale 0 to 100 (0 no effect, 100 complete control)
[23] = Preemergence, 31 g ai/ha, scale 0 to 100, 0 is no effect and 100 is complete control

O=C1NCC(c2ccc(Cl)c(F)c2)C1C(=O)Nc1cccc(F)c1F (stereo not shown) [Compound 52]
Plant response rating, Barnyardgrass [1, 10]: 80
Plant response rating, Barnyardgrass [1, 11]: 80
Barnyardgrass plant response rating ([1]; 125 g ai/ha): 80
Plant response rating, Barnyardgrass [1, 12]: 90
Plant response rating, Pigweed [2, 10]: 0
Plant response rating, Pigweed [2, 11]: 40
Pigweed plant response rating ([2]; 125 g ai/ha): 0
Plant response rating, Pigweed [2, 13]: 40
Plant response rating, Wheat [3, 10]: 0
Plant response rating, Wheat [3, 11]: 30
Wheat plant response rating ([3]; 125 g ai/ha): 0
Plant response rating, Wheat [3, 13]: 0
Plant response rating, Ducksalad [4]: 90
Plant response rating, Blackgrass [5, 14]: 0
Plant response rating, Blackgrass [5, 15]: 0
Plant response rating, Blackgrass [5, 16]: 0
Plant response rating, Blackgrass [5, 17]: 0
Plant response rating, Blackgrass [5, 18]: 0
Plant response rating, Blackgrass [5, 19]: 0
Blackgrass plant response rating [5, 20]: 0
Plant response rating, Blackgrass ([5]; Preemergence, 250 g ai/ha, scale 0 to 100 (0 no effect, 100 complete control)): 0
Plant response rating, Ryegrass, Italian [6, 14]: 0
Plant response rating, Ryegrass, Italian [6, 15]: 0
Plant response rating, Ryegrass, Italian [6, 16]: 0
Plant response rating, Ryegrass, Italian [6, 17]: 0
Plant response rating, Ryegrass, Italian [6, 18]: 0
Plant response rating, Ryegrass, Italian [6, 19]: 0
Plant response rating, Wheat [7, 14]: 0
Plant response rating, Wheat [7, 15]: 0
Plant response rating, Wheat [7, 16]: 0
Plant response rating, Wheat [7, 17]: 0
Plant response rating, Wheat [7, 18]: 0
Plant response rating, Wheat [7, 19]: 10
Plant response rating, Galium ([8]; 62 g ai/ha, scale 0 to 100): 0
Plant response rating, Galium [8, 21]: 90
Galium plant response rating [8, 22]: 0
Plant response rating, Galium ([8]; 250 g ai/ha, scale 0 to 100 (0 no effect, 100 complete control)): 90
Plant response rating, Nutsedge, Yellow [9, 14]: 10
Plant response rating, Nutsedge, Yellow [9, 15]: 10
Plant response rating, Nutsedge, Yellow [9, 16]: 10
Plant response rating, Nutsedge, Yellow [9, 17]: 10
Plant response rating, Nutsedge, Yellow [9, 18]: 25
Plant response rating, Nutsedge, Yellow [9, 19]: 25

O=C1NCC(c2ccc(F)c(Cl)c2)C1C(=O)Nc1ccccc1F (stereo not shown) [Compound 60]
Plant response rating, Barnyardgrass [1, 10]: 80
Plant response rating, Barnyardgrass [1, 11]: 90
Barnyardgrass plant response rating ([1]; 125 g ai/ha): 80
Plant response rating, Barnyardgrass [1, 12]: 90
Plant response rating, Pigweed [2, 10]: 0
Plant response rating, Pigweed [2, 11]: 0
Pigweed plant response rating ([2]; 125 g ai/ha): 0
Plant response rating, Pigweed [2, 13]: 0
Plant response rating, Wheat [3, 10]: 0
Plant response rating, Wheat [3, 11]: 50
Wheat plant response rating ([3]; 125 g ai/ha): 0
Plant response rating, Wheat [3, 13]: 0
Plant response rating, Ducksalad [4]: 90
Plant response rating, Blackgrass [5, 14]: 0
Plant response rating, Blackgrass [5, 15]: 0
Plant response rating, Blackgrass [5, 16]: 0
Plant response rating, Blackgrass [5, 18]: 10
Plant response rating, Blackgrass [5, 19]: 40
Blackgrass plant response rating [5, 20]: 0
Plant response rating, Ryegrass, Italian [6, 14]: 0
Plant response rating, Ryegrass, Italian [6, 15]: 0
Plant response rating, Ryegrass, Italian [6, 16]: 0
Plant response rating, Ryegrass, Italian [6, 18]: 0
Plant response rating, Ryegrass, Italian [6, 19]: 0
Plant response rating, Wheat [7, 14]: 0
Plant response rating, Wheat [7, 15]: 0
Plant response rating, Wheat [7, 16]: 5
Plant response rating, Wheat [7, 18]: 0
Plant response rating, Wheat [7, 19]: 0
Plant response rating, Galium ([8]; 62 g ai/ha, scale 0 to 100): 0
Plant response rating, Galium [8, 21]: 5
Galium plant response rating [8, 22]: 0
Plant response rating, Nutsedge, Yellow [9, 14]: 0
Plant response rating, Nutsedge, Yellow [9, 15]: 0
Plant response rating, Nutsedge, Yellow [9, 16]: 5
Plant response rating, Nutsedge, Yellow [9, 18]: 0
Plant response rating, Nutsedge, Yellow [9, 19]: 15

O=C1NCC(c2cccc(OC(F)(F)F)c2)C1C(=O)Nc1ccccc1F (stereo not shown) [Compound 69]
Plant response rating, Barnyardgrass [1, 10]: 70
Plant response rating, Barnyardgrass [1, 11]: 80
Barnyardgrass plant response rating ([1]; 125 g ai/ha): 80
Plant response rating, Barnyardgrass [1, 12]: 90
Plant response rating, Pigweed [2, 10]: 20
Plant response rating, Pigweed [2, 11]: 30
Pigweed plant response rating ([2]; 125 g ai/ha): 0
Plant response rating, Pigweed [2, 13]: 20
Plant response rating, Wheat [3, 10]: 0
Plant response rating, Wheat [3, 11]: 40
Wheat plant response rating ([3]; 125 g ai/ha): 0
Plant response rating, Wheat [3, 13]: 20
Plant response rating, Ducksalad [4]: 85
Blackgrass plant response rating [5, 23]: 0
Plant response rating, Blackgrass [5, 18]: 5
Plant response rating, Blackgrass [5, 19]: 30
Plant response rating (scale of 0 to 100), Blackgrass ([5]; Preemergence, 250 g ai/ha): 35
Ryegrass, Italian plant response rating [6, 23]: 0
Plant response rating, Ryegrass, Italian [6, 18]: 0
Plant response rating, Ryegrass, Italian [6, 19]: 0
Plant response rating (scale of 0 to 100), Ryegrass, Italian ([6]; Preemergence, 250 g ai/ha): 10
Wheat plant response rating [7, 23]: 0
Plant response rating, Wheat [7, 18]: 0
Plant response rating, Wheat [7, 19]: 5
Plant response rating (scale of 0 to 100), Wheat ([7]; Preemergence, 250 g ai/ha): 5
Galium plant response rating ([8]; scale 0 to 100, 0 is no effect and 100 is complete control): 0
Plant response rating, Galium ([8]; 62 g ai/ha, scale 0 to 100): 0
Plant response rating, Galium [8, 21]: 5
Plant response rating (scale of 0 to 100), Galium ([8]; 250 g ai/ha): 75
Nutsedge, Yellow plant response rating [9, 23]: 0
Plant response rating, Nutsedge, Yellow [9, 19]: 0
Plant response rating (scale of 0 to 100), Nutsedge, Yellow ([9]; Preemergence, 250 g ai/ha): 10
